Laboratory results reported in patent publication US4816467A, “Heteroaryl 3-oxo-propanenitrile derivatives, pharmaceutical compositions and use” (Farmitalia Carlo Erba s.r.l, priority 1987, dated 1989).

Key:
S. flexneri = test: Activity on S. flexneri infection in mice; format: in vivo; conditions: infection 3 × LD50 i.p., controls 100
Description: (§1) The compound of the present invention 2-cyano-3-(1,4-dihydro-1-phenyl-[1]-benzothiopyrano[4,3-c]pyrazol-3-yl)-3- oxo-N-phenyl-propanamide (internal code FCE 24578), for instance, was tested, according to the procedure described by Cleeland R., Grunberg E. 1986, 825-876, "Antibiotics in Laboratory Medicine" Lorian V. Editor (Williams and Wilkins), in the following models of infection: L. monocytogenes; D. pneumoniae; S. flexneri and P. aeruginosa; the last one being performed in cyclophosphamide immunosuppressed mice, according to Cryz S. J., Furer E., Germanier R., 1983, Infect. Imm., 39, 1067-1071.
(§2) Activity of FCE 24578 on S. flexneri and D. pneumoniae
(§3) Infection (3 × LD50) was given i.p.
(§4) Treatments with FCE 24578 or vehicle were performed on -3, -2, -1 and 0

D. pneumoniae = test: Activity on D. pneumoniae infection in mice; format: in vivo; conditions: infection 3 × LD50 i.p.
Description: as §1, §2, §3, §4
MST = Mean Survival Time.
*= significant for p < 0.01.

L. monocytogenes = test: Activity on L. monocytogenes infection in mice; format: in vivo; conditions: L. monocytogenes 1 × LD50 i.v., controls 75
Description: as §1
Activity of FCE 24578 on L. monocytogenes infection
Treatments with FCE 2457B or vehicle were performed on -3, -2, -1 and 0
day before the infection (1 × LD50) given i.v.

P. aeruginosa = test: Activity on P. aeruginosa infection in immunosuppressed mice; format: in vivo; conditions: cyclophosphamide immunosuppressed; for % mortality 1 × LD50: P. aeruginosa 1 × LD50 i.v., controls 80; for % mortality 2 × LD50: P. aeruginosa 2 × LD50 i.v., controls 90
Description: as §1
Activity of FCE 24578 on P. aeruginosa infection
in immunosuppressed mice
Cyclophosphamide (200 mg/kg) was administered i.p. on the fourth day
The treatments with FCE 24578 or vehicle were performed on -3, -2, -1 and
0 day before the infection (2 × LD50 and 1 × LD50)

[1] = approximate acute toxicity (LD50) in the mouse, per os; conditions: in vivo, po, single administration of increasing doses, measured on the seventh day
Description: For example, the approximate acute toxicity (LD50) in the mouse of the compounds 2-cyano-3-(1,4-dihydro-1-phenyl-[1]-benzopyrano[4,3-c]pyrazol-3-yl)-3-oxo- N-phenyl-propanamide, and 2-cyano-3-(1,4-dihydro-1-phenyl-[1]-benzothiopyrano[4,3-c]pyrazol-3-yl)-3- oxo-N-phenyl-propanamide, determined per os with single administration of increasing doses and measured on the seventh day after the day of treatment, is higher than 800 mg/kg. Analogous toxicity data have been found for the other compounds of the invention.

With `N#CC(C(=O)Nc1ccccc1)C(=O)c1nn(-c2ccccc2)c2c1CSc1ccccc1-2` (centres unmarked) [FCE 24578, 2-cyano-3-(1,4-dihydro-1-phenyl-[1]-benzothiopyrano[4,3-c]pyrazol-3-yl)-3-oxo-N-phenyl-propanamide] the “% mortality” value (S. flexneri; 10 mg/kg i.p. on -3, -2, -1 and 0 day before infection) was 40%, the “% mortality” value (S. flexneri; 50 mg/kg i.p. on -3, -2, -1 and 0 day before infection) was 10% and the “MST (Mean Survival Time)” value (D. pneumoniae; 10 mg/kg i.p. on -3, -2, -1 and 0 day before infection, controls 3.1) was 4 days. For the same compound, the “MST (Mean Survival Time)” value (D. pneumoniae; 50 mg/kg i.p. on -3, -2, -1 and 0 day before infection, controls 3.1, * = significant for p < 0.01) was 5.7 days, the “% mortality 1 × LD50” value (L. monocytogenes; 10 mg/kg i.p.) was 12.5% and the “% mortality 1 × LD50” value (L. monocytogenes; 50 mg/kg i.p.) was 0%. For the same compound, the “% mortality 1 × LD50” value (L. monocytogenes; 50 mg/kg p.o.) was 37.5%, the “% mortality 1 × LD50” value (L. monocytogenes; 250 mg/kg p.o.) was 25% and the “% mortality 1 × LD50” value (P. aeruginosa; 10 mg/kg i.p.) was 0%. The “% mortality 1 × LD50” value (P. aeruginosa; 50 mg/kg i.p.) was 0%, the “% mortality 2 × LD50” value (P. aeruginosa; 10 mg/kg i.p.) was 0% and the “% mortality 2 × LD50” value (P. aeruginosa; 50 mg/kg i.p.) was 0%. It also gave an LD50 at 168 h [1] greater than 800 mg/kg.
With `N#CC(C(=O)Nc1ccccc1)C(=O)c1nn(-c2ccccc2)c2c1COc1ccccc1-2` (centres unmarked) [FCE 25158, 2-cyano-3-(1,4-dihydro-1-phenyl-[1]-benzopyrano[4,3-c]pyrazol-3-yl)-3-oxo-N-phenyl-propanamide] the LD50 at 168 h [1] was greater than 800 mg/kg.
